Experimental data reported in patent US9045389B2, “Biphenyl derivatives useful as glucagon receptor antagonists” (Janssen Pharmaceutica NV, priority 2011, dated 2015).

Each molecule was assayed against human GCGR (Homo sapiens (Human), UniProt P47871) (assay: Cellular functional assay, cAMP readout: glucagon stimulated cAMP in HEK293 cells expressing human GCGR (LANCE TR-FRET)).
Type: cell-based
Procedure: IC50 Values in Cellular Functional Assays: cAMP Readout
Full-length human GCGR (Accession Number: NM000160) subcloned into pcDNA3.1 was stably transfected into HEK293 cells (hGluc-1 HEK) and maintained under G418 selection (500 μg/mL). Cell cultures were maintained in DMEM/F12 media supplemented with 10% FBS and 1% GlutaMax. Glucagon stimulated cAMP was quantified using LANCE technology as per manufacturer instructions. On the day of the experiment, spent media was removed and cells were washed with Hank's Buffered Saline solution (HBSS) and cells were harvested with non-enzymatic cell dissociation solution, then washed once with HBSS. Cells were re-suspended in stimulation buffer at a concentration of 0.83×10^6 cells/ml and cAMP detection antibody was added. 6 μl/well of this solution was then dispensed in a 384 well plate (cell density 5000 cells/well). Test compound was serially diluted in DMSO and 50 nl were dispensed on top of the cell solution and allowed to incubate for 30 minutes. 6 μl of a 2× glucagon solution (final concentration in assay 100 pM) was then added and the reaction was terminated after 5 minutes with the addition of detection mix. The resulting mixture was incubated, protected from light for 1.5 h. cAMP levels were quantified by TR-FRET in an EnVision instrument against a known standard. IC50's were generated by using a non-linear regression macro driven in Excel and converted to Ki values.

Chain of human GCGR (P47871 26-477): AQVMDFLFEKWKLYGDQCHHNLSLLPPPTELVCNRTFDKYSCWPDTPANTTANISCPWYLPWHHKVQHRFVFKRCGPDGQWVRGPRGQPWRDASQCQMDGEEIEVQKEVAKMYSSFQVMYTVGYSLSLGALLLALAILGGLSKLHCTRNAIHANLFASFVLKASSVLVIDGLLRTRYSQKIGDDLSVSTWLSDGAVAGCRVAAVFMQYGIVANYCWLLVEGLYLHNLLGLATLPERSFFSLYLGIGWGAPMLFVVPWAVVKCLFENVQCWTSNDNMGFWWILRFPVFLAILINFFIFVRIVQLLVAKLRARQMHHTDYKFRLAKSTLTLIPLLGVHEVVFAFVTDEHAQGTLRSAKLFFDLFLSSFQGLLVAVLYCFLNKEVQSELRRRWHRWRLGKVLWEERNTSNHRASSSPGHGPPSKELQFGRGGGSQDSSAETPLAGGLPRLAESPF

| SMILES | Ki |
| --- | --- |
| Cc1cc(C(F)(F)F)ccc1-c1ccc(NCc2ccc(C(F)(F)F)cc2-c2ccc(C(=O)NCCC(=O)O)cc2C)cc1Cl [Compound 6, 3-(2′-(((2-chloro-2′-methyl-4′-(trifluoromethyl)-[1,1′-biphenyl]-4-yl)amino)methyl)-2-methyl-5′-(trifluoromethyl)-[1,1′-biphenyl]-4-ylcarboxamido)propanoic acid] | 70 nM |
| COc1cc(C(F)(F)F)cc(-c2ccc(C(=O)NCCC(=O)O)cc2)c1CNc1ccc(-c2ccc(Cl)cc2)c(Cl)c1 [Compound 15, 3-(2′-(((2,4′-dichloro-[1,1′-biphenyl]-4-yl)amino)methyl)-3′-methoxy-5′-(trifluoromethyl)-[1,1′-biphenyl]-4-ylcarboxamido)propanoic acid] | 57 nM |
| COc1cc(C(F)(F)F)cc(-c2ccc(C(=O)NCCC(=O)O)cc2)c1CNc1ccc(-c2ccc(C(F)(F)F)cc2Cl)cc1 [Compound 16, 3-(2′-(((2′-chloro-4′-(trifluoromethyl)-[1,1′-biphenyl]-4-yl)amino)methyl)-3′-methoxy-5′-(trifluoromethyl)-[1,1′-biphenyl]-4-ylcarboxamido)propanoic acid] | 47 nM |
| Cc1cc(C(F)(F)F)ccc1-c1ccc(NCc2c(-c3ccc(C(=O)NCCC(=O)O)cc3)cc(C(F)(F)F)cc2C(C)C)cc1Cl [Compound 17, 3-(2′-(((2-chloro-2′-methyl-4′-(trifluoromethyl)-[1,1′-biphenyl]-4-yl)amino)methyl)-3′-isopropyl-5′-(trifluoromethyl)-[1,1′-biphenyl]-4-ylcarboxamido)propanoic acid] | 30 nM |

Further lines, results first:

| Ki | SMILES |
| --- | --- |
| 57 nM | Cc1cc(Cl)ccc1-c1ccc(NCc2ccc(C(F)(F)F)cc2-c2ccc(C(=O)NCCC(=O)O)cc2)cc1Cl [Compound 1, 3-(2′-(((2,4′-dichloro-2′-methyl-[1,1′-biphenyl]-4-yl)amino)methyl)-5′-(trifluoromethyl)-[1,1′-biphenyl]-4-ylcarboxamido)propanoic acid] |
| 42 nM | Cc1cc(C(F)(F)F)ccc1-c1ccc(NCc2ccc(C(F)(F)F)cc2-c2ccc(C(=O)NCCC(=O)O)cc2)cc1Cl [Compound 2, 3-(2′-(((2-chloro-2′-methyl-4′-(trifluoromethyl)-[1,1′-biphenyl]-4-yl)amino)methyl)-5′-(trifluoromethyl)-[1,1′-biphenyl]-4-ylcarboxamido)propanoic acid] |
| 67 nM | O=C(O)CCNC(=O)c1ccc(-c2cc(C(F)(F)F)ccc2CNc2ccc(-c3ccc(C(F)(F)F)cc3Cl)c(Cl)c2)cc1 [Compound 3, 3-(2′-(((2,2′-dichloro-4′-(trifluoromethyl)-[1,1′-biphenyl]-4-yl)amino)methyl)-5′-(trifluoromethyl)-[1,1′-biphenyl]-4-ylcarboxamido)propanoic acid] |
| 150 nM | O=C(O)CCNC(=O)c1ccc(-c2cc(C(F)(F)F)ccc2CNc2ccc(-c3ccc(Cl)cc3Cl)cc2)cc1 [Compound 4, 3-(2′-(((2′,4′-dichloro-[1,1′-biphenyl]-4-yl)amino)methyl)-5′-(trifluoromethyl)-[1,1′-biphenyl]-4-ylcarboxamido)propanoic acid] |
| 89 nM | Cc1cc(Cl)ccc1-c1ccc(NCc2ccc(C(F)(F)F)cc2-c2ccc(C(=O)NCCC(=O)O)cc2C)cc1Cl [Compound 5, 3-(2′-(((2,4′-dichloro-2′-methyl-[1,1′-biphenyl]-4-yl)amino)methyl)-2-methyl-5′-(trifluoromethyl)-[1,1′-biphenyl]-4-ylcarboxamido)propanoic acid] |
